Laboratory results: patent US20100056516A1 (priority 2006, published 2010)

How the values were obtained:
HXB2 virus = assay: microbe, parasite or virus in culture; type: cell-based, HIV; conditions: Human immunodeficiency virus 1, HXB2, HeLaP4-2, read-out: antiviral IC50 (SCIA-B)
Procedure, shortened: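 HXB2 virus used to infect HeLa P4-2 cells in a single-cycle format; inhibition of acute infection is measured.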

HIV integrase = HIV integrase (Human immunodeficiency virus type 1 group M subtype B, UniProt P04585); assay: integrase strand transfer assay (STA); type: biochemical; conditions: integrase strand transfer; read-out: IC50 in the STA assay

Structure (SMILES)	IC50 (HXB2 virus) [µM]	IC50 (HIV integrase) [µM]
O=c1cc(-c2ccccc2)c2cccnc2n1O [Example 171, 1-Hydroxy-4-phenyl-1,8-naphthyridin-2(H)-one]	< 100	< 50
O=c1cc(-c2ccc3ccccc3c2)c2cccnc2n1O [Example 173, 1-hydroxy-4-(2-naphthyl)-1,8-naphthyridin-2(1H)-one]	< 100	< 50
CC(c1ccc(-c2cc(=O)n(O)c3ncccc23)cc1)N1CCOCC1 (stereo not shown) [Example 174, 1-hydroxy-4-[4-(1-morpholin-4-ylethyl)phenyl]-1,8-naphthyridin-2(1H)-one]	< 100	< 50
CS(=O)(=O)Nc1cccc(-c2cc(=O)n(O)c3ncccc23)c1 [Example 175, N-[3-(1-hydroxy-2-oxo-1,2-dihydro-1,8-naphthyridin-4-yl)phenyl]methanesulfo-namide]	< 100	< 50
Cc1cc(C)n(-c2cccc(-c3cc(=O)n(O)c4ncccc34)c2)n1 [Example 176]	< 100	< 50
CS(=O)(=O)Nc1cccc(-c2cccc(-c3cc(=O)n(O)c4ncccc34)c2)c1 [Example 177, N-[3′-(1-hydroxy-2-oxo-1,2-dihydro-1,8-naphthyridin-4-yl)biphenyl-3-yl]methanesulfonamide]	< 100	< 50
CC(c1ccc(-c2cccc(-c3cc(=O)n(O)c4ncccc34)c2)cc1)N1CCOCC1 (stereo not shown) [Example 178, 1-hydroxy-4-[4′-(1-morpholin-4-ylethyl)biphenyl-3-yl]-1,8-naphthyridin-2(1H)-one]	< 100	< 50
O=C(c1cccc(-c2cc(=O)n(O)c3ncccc23)c1)N1CCOCC1 [Example 179, 1-hydroxy-4-[3-(morpholin-4-ylcarbonyl)phenyl]-1,8-naphthyridin-2(1H)-one]	< 100	< 50
CNC(=O)c1cccc(-c2cc(=O)n(O)c3ncccc23)c1 [Example 180, 3-(1-hydroxy-2-oxo-1,2-dihydro-1,8-naphthyridin-4-yl)-N-methylbenzamide]	< 100	< 50
CN(C)C(=O)c1cccc(-c2cc(=O)n(O)c3ncccc23)c1 [Example 181, 3-(1-hydroxy-2-oxo-1,2-dihydro-1,8-naphthyridin-4-yl)-N,N-dimethylbenzamide]	< 100	< 50
CC(C)(C)NC(=O)c1cccc(-c2cc(=O)n(O)c3ncccc23)c1 [Example 182]	< 100	< 50
O=c1cc(-c2cccc(CO)c2)c2cccnc2n1O [Example 183, 1-hydroxy-4-[3-(hydroxymethyl)phenyl]-1,8-naphthyridin-2(1H)-one]	< 100	< 50
O=c1cc(-c2ccc3ncccc3c2)c2cccnc2n1O [Example 184, 1-hydroxy-4-quinolin-6-yl-1,8-naphthyridin-2(1H)-one]	< 100	< 50
COc1ccc(-c2ccncc2)cc1-c1cc(=O)n(O)c2ncccc12 [Example 185, 1-hydroxy-4-(2-methoxy-5-pyridin-4-ylphenyl)-1,8-naphthyridin-2(1H)-one]	< 100	< 50
O=c1cc(-c2ccc3cc[nH]c3c2)c2cccnc2n1O [Example 186, 1-hydroxy-4-(1H-indol-6-yl)-1,8-naphthyridin-2(1H)-one]	< 100	< 50
COC(=O)CCc1cccc(-c2cccc(-c3cc(=O)n(O)c4ncccc34)c2)c1 [Example 187, methyl-3-[3′-(1-hydroxy-2-oxo-1,2-dihydro-1,8-naphthyridin-4-yl)biphenyl-3-yl]-propanoate]	< 100	< 50
O=c1cc(-c2ccc(-c3ccn[nH]3)cc2)c2cccnc2n1O [Example 188, 1-hydroxy-4-[4-(1H-pyrazol-5-yl)phenyl]-1,8-naphthyridin-2(1H)-one]	< 100	< 50
CS(=O)(=O)NCc1ccc(-c2cc(=O)n(O)c3ncccc23)cc1 [Example 189, N-[4-(1-hydroxy-2-oxo-1,2-dihydro-1,8-naphthyridin-4-yl)benzyl]methanesulfo-namide]	< 100	< 50
NCc1cccc(-c2cncc(-c3cc(=O)n(O)c4ncccc34)c2)c1 [Example 190, 4-{5-[3-(aminomethyl)phenyl]pyridin-3-yl}-1-hydroxy-1,8-naphthyridin-2(1H)one]	< 100	< 50
CC(=O)c1cccc(-c2cccc(-c3cc(=O)n(O)c4ncccc34)c2)c1 [Example 191, 4-(3′-acetylbiphenyl-3-yl)-1-hydroxy-1,8-naphthyridin-2(1H)-one]	< 100	< 50
NS(=O)(=O)c1cccc(-c2cc(=O)n(O)c3ncccc23)c1 [Example 192, 3-(1-hydroxy-2-oxo-1,2-dihydro-1,8-naphthyridin-4-yl)benzenesulfonamide]	< 100	< 50

Structure (SMILES)	IC50 (HXB2 virus) [µM]	IC50 (HIV integrase) [µM]
CNS(=O)(=O)c1cccc(-c2cc(=O)n(O)c3ncccc23)c1 [Example 193, 3-(1-hydroxy-2-oxo-1,2-dihydro-1,8-naphthyridin-4-yl)-N-methylbenzenesulfona-mide]	< 100	< 50
CC(=O)Nc1cccc(-c2cc(=O)n(O)c3ncccc23)c1 [Example 194, N-[3-(1-hydroxy-2-oxo-1,2-dihydro-1,8-naphthyridin-4-yl)phenyl]acetamide]	< 100	< 50
O=C(c1cccc(-c2cc(=O)n(O)c3ncccc23)c1)N1CCCC1 [Example 195, 1-hydroxy-4-[3-(pyrrolidin-1-ylcarbonyl)phenyl]-1,8-naphthyridin-2(1H)-one]	< 100	< 50
NC(=O)c1cccc(-c2cc(=O)n(O)c3ncccc23)c1 [Example 196, 3-(1-hydroxy-2-oxo-1,2-dihydro-1,8-naphthyridin-4-yl)benzamide]	< 100	< 50
O=c1cc(-c2cncnc2)c2cccnc2n1O [Example 197, 1-hydroxy-4-pyrimidin-5-yl-1,8-naphthyridin-2(1H)-one]	< 100	< 50
O=c1cc(-c2ccn[nH]2)c2cccnc2n1O [Example 198, 1-hydroxy-4-(1H-pyrazol-5-yl)-1,8-naphthyridin-2(1H)-one]	< 100	< 50
CS(=O)(=O)c1cccc(-c2cc(=O)n(O)c3ncccc23)c1 [Example 199, 1-hydroxy-4-[3-(methylsulfonyl)phenyl]-1,8-naphthyridin-2(1H)-one]	< 100	< 50
O=c1cc(-c2ccc(NCCN3CCOCC3)nc2)c2cccnc2n1O [Example 200, 1-hydroxy-4-{6-[(2-morpholin-4-ylethyl)amino]pyridin-3-yl}-1,8-naphthyridin-2(1H)-one]	< 100	< 50
CS(=O)(=O)Nc1ccccc1-c1cc(=O)n(O)c2ncccc12 [Example 201, N-[2-(1-hydroxy-2-oxo-1,2-dihydro-1,8-naphthyridin-4-yl)phenyl]methanesulfo-namide]	< 100	< 50
N#Cc1cccc(-c2cccc(-c3cc(=O)n(O)c4ncccc34)c2)c1 [Example 202, 3′-(1-hydroxy-2-oxo-1,2-dihydro-1,8-naphthyridin-4-yl)biphenyl-3-carbonitrile]	< 100	< 50
O=c1cc(-c2ccncc2)c2cccnc2n1O [Example 203, 1-hydroxy-4-pyridin-4-yl-1,8-naphthyridin-2(1H)-one]	< 100	< 50
NCc1cccc(-c2cccc(-c3cc(=O)n(O)c4ncccc34)c2)c1 [Example 204, 4-[3′-(aminomethyl)biphenyl-3-yl]-1-hydroxy-1,8-naphthyridin-2(1H)-one]	< 100	< 50
O=c1cc(-c2cccc(-c3cccc(CNCc4ccccc4)c3)c2)c2cccnc2n1O [Example 205, 4-{3′-[(benzylamino)methyl]biphenyl-3-yl}-1-hydroxy-1,8-naphthyridin-2(H)-one]	< 100	< 50
O=c1cc(-c2cccc(CN3CCN(Cc4ccccc4)CC3)c2)c2cccnc2n1O [Example 206, 4-{3-[(4-benzyl-1-piperazinyl)methyl]phenyl}-1-hydroxy-1,8-naphthyridin-2(1H-one)]	< 100	< 50
O=c1cc(-c2cccc(CN3CCN(C(c4ccccc4)c4ccc(Cl)cc4)CC3)c2)c2cccnc2n1O (stereo not shown) [Example 207]	< 100	< 50
O=C(CN1CCN(Cc2cccc(-c3cc(=O)n(O)c4ncccc34)c2)CC1)N1CCCC1 [Example 208, 1-hydroxy-4-[3-({4-[2-oxo-2-(1-pyrrolidinyl)ethyl]-1-piperazinyl}methyl)phenyl]-1,8-naphthyridin-2(1H-one)]	< 100	< 50
CN(C)C(=O)CNCc1cccc(-c2cc(=O)n(O)c3ncccc23)c1 [Example 209, 2-{[3-(1-hydroxy-2-oxo-1,2-dihydro-1,8-naphthyridin-4-yl)benzyl]amino}-N,N-dimethylacetamide]	< 100	< 50
CC(c1ccccc1)N1CCN(Cc2cccc(-c3cc(=O)n(O)c4ncccc34)c2)CC1 (stereo not shown) [Example 210, 1-hydroxy-4-(3-{[4-(1-phenylethyl)-1-piperazinyl]methyl}phenyl)-1,8-naphthyridin-2(1H-one)]	< 100	< 50
O=C(CN1CCN(Cc2cccc(-c3cc(=O)n(O)c4ncccc34)c2)CC1)N1CCOCC1 [Example 211, 1-hydroxy-4-[3-({4-[2-(4-morpholinyl)-2-oxoethyl]-1-piperazinyl}methyl)phenyl]-1,8-naphthyridin-2(1H-one)]	< 100	< 50
CN(C)CCCN1CCN(Cc2cccc(-c3cc(=O)n(O)c4ncccc34)c2)CC1 [Example 212, 4-[3-({4-[3-(dimethylamino)propyl]-1-piperazinyl}methyl)phenyl]-1-hydroxy-1,8-naphthyridin-2(1H-one)]	< 100	< 50
